Data as given in patent US11312727B1, “Macrocyclic flu endonuclease inhibitors” (Janssen BioPharma, Inc., priority 2018, dated 2022).

Columns and labels:
[1] = system: Influenza strain A549 A/WSN/33 (H1N1); assay: microbe, parasite or virus in culture; type: cell-based; conditions: Influenza A virus, A549, 20 h, A549 cells, influenza A/WSN/33 (H1N1), 20 hours incubation; read-out: A549_A(H1N1) EC50
[2] = in vitro; conditions: human, CC50, uninfected A549 cells, CellTiter-Glo

Compound	EC50 [1]	CC50 [2]
O=C1c2c(O)c(=O)ccn2N2CN1C1(/C=C/COc3cc(F)c(F)c4c3[C@@H]2c2ccccc2SC4)CCC1 (single isomer, unassigned) [Compound 159A, (17a′*R,*E)-24′,25′-difluoro-12′-hydroxy-2′,17a′-dihydro-6′H-spiro[cyclobutane-1,9′-[3,4](epiprop[1]en[1]yl[3]ylidene)[10,17]methanobenzo[6,7]thiepino[4,5-c]pyrido[1,2-f][1]oxa[5,6,9]triazacyclotridecine]-11′,13′-dione]	> 50 nM	> 100 nM
O=C1c2c(O)c(=O)ccn2N2CN1C1(/C=C/COc3cc(F)c(F)c4c3[C@H]2c2ccccc2SC4)CCC1 (single isomer, unassigned) [Compound 159B, (17a′*S,*E)-24′,25′-difluoro-12′-hydroxy-2′,17a′-dihydro-6′H-spiro[cyclobutane-1,9′-[3,4](epiprop[1]en[1]yl[3]ylidene)[10,17]methanobenzo[6,7]thiepino[4,5-c]pyrido[1,2-f][1]oxa[5,6,9]triazacyclotridecine]-11′,13′-dione]	0.19 nM	> 100 nM
CC[C@H]1/C=C/COc2c(ccc(F)c2F)[C@@H](c2ccccn2)N2CN1C(=O)c1c(O)c(=O)ccn12 (single isomer, unassigned) [Compound 160AA, (9*S,18*S,*E)-9-ethyl-3,4-difluoro-12-hydroxy-18-(pyridin-2-yl)-6,9-dihydro-18H-10,17-methanobenzo[b]pyrido[1,2-f][1]oxa[5,6,9]triazacyclotridecine-11,13-dione]	5.2 nM	> 100 nM
CC[C@@H]1/C=C/COc2c(ccc(F)c2F)[C@@H](c2ccccn2)N2CN1C(=O)c1c(O)c(=O)ccn12 (single isomer, unassigned) [Compound 160AB, (9*R,18*S,*E)-9-ethyl-3,4-difluoro-12-hydroxy-18-(pyridin-2-yl)-6,9-dihydro-18H-10,17-methanobenzo[b]pyrido[1,2-f][1]oxa[5,6,9]triazacyclotridecine-11,13-dione]	2.8 nM	> 100 nM
CC[C@H]1/C=C/COc2c(ccc(F)c2F)[C@H](c2ccccn2)N2CN1C(=O)c1c(O)c(=O)ccn12 (single isomer, unassigned) [Compound 160BA, (9*S,18*R,*E)-9-ethyl-3,4-difluoro-12-hydroxy-18-(pyridin-2-yl)-6,9-dihydro-18H-10,17-methanobenzo[b]pyrido[1,2-f][1]oxa[5,6,9]triazacyclotridecine-11,13-dione]	> 50 nM	> 100 nM
CC[C@@H]1/C=C/COc2c(ccc(F)c2F)[C@H](c2ccccn2)N2CN1C(=O)c1c(O)c(=O)ccn12 (single isomer, unassigned) [Compound 160BB, (9*R,18*R,*E)-9-ethyl-3,4-difluoro-12-hydroxy-18-(pyridin-2-yl)-6,9-dihydro-18H-10,17-methanobenzo[b]pyrido[1,2-f][1]oxa[5,6,9]triazacyclotridecine-11,13-dione]	> 50 nM	> 100 nM
O=C1c2c(O)c(=O)ccn2N2CN1C[C@H]1C[C@@H](COc3cccc4c3[C@@H]2c2ccccc2SC4)C1 (single isomer, unassigned) [Compound 161A]	> 50 nM	> 100 nM
O=C1c2c(O)c(=O)ccn2N2CN1C[C@H]1C[C@@H](COc3cccc4c3[C@H]2c2ccccc2SC4)C1 (single isomer, unassigned) [Compound 161B]	15 nM	> 100 nM
C[C@@H]1/C=C/COc2cc(F)c(F)c3c2[C@H](c2ccccc2SC3)N2CN1C(=O)c1c(O)c(=O)ccn12 (single isomer, unassigned) [Compound 162A, (9*R,17a*R,*E)-24,25-difluoro-12-hydroxy-9-methyl-2,6,9,17a-tetrahydro-3,4-(epiprop[1]en[1]yl[3]ylidene)-10,17-methanobenzo[6,7]thiepino[4,5-c]pyrido[1,2-f][1]oxa[5,6,9]triazacyclotridecine-11,13-dione]	> 50 nM	> 100 nM
C[C@H]1/C=C/COc2cc(F)c(F)c3c2[C@@H](c2ccccc2SC3)N2CN1C(=O)c1c(O)c(=O)ccn12 (single isomer, unassigned) [Compound 162B, (9*S,17a*S,*E)-24,25-difluoro-12-hydroxy-9-methyl-2,6,9,17a-tetrahydro-3,4-(epiprop[1]en[1]yl[3]ylidene)-10,17-methanobenzo[6,7]thiepino[4,5-c]pyrido[1,2-f][1]oxa[5,6,9]triazacyclotridecine-11,13-dione]	0.23 nM	> 100 nM
C[C@@H]1/C=C\COc2cc(F)c(F)c3c2[C@H](c2ccccc2SC3)N2CN1C(=O)c1c(O)c(=O)ccn12 (single isomer, unassigned) [Compound 162C, (13*R,21a*R,*Z)-24,25-difluoro-16-hydroxy-13-methyl-6,10,13,21a-tetrahydro-7,8-(epiprop[1]en[1]yl[3]ylidene)-14,21-methanobenzo[6,7]thiepino[4,5-c]pyrido[1,2-f][1]oxa[5,6,9]triazacyclotridecine-15,17-dione]	10 nM	> 100 nM
C[C@H]1/C=C\COc2cc(F)c(F)c3c2C(c2ccccc2SC3)N2CN1C(=O)c1c(O)c(=O)ccn12 (single isomer, unassigned) [Compound 162D, (13*S,21a*S,*Z)-24,25-difluoro-16-hydroxy-13-methyl-6,10,13,21a-tetrahydro-7,8-(epiprop[1]en[1]yl[3]ylidene)-14,21-methanobenzo[6,7]thiepino[4,5-c]pyrido[1,2-f][1]oxa[5,6,9]triazacyclotridecine-15,17-dione]	0.51 nM	> 100 nM
O=C1c2c(O)c(=O)ccn2N2CN1[C@@H](C(F)F)/C=C/COc1cccc3c1[C@@H]2c1ccccc1SC3 (single isomer, unassigned) [Compound 163BA, (9*R,17a*R,*E)-9-(difluoromethyl)-12-hydroxy-2,6,9,17a-tetrahydro-3,4-(epiprop[1]en[1]yl[3]ylidene)-10,17-methanobenzo[6,7]thiepino[4,5-c]pyrido[1,2-f][1]oxa[5,6,9]triazacyclotridecine-11,13-dione]	> 50 nM	> 100 nM
O=C1c2c(O)c(=O)ccn2N2CN1[C@H](C(F)F)/C=C/COc1cccc3c1[C@@H]2c1ccccc1SC3 (single isomer, unassigned) [Compound 163BB, (9*S,17a*R,*E)-9-(difluoromethyl)-12-hydroxy-2,6,9,17a-tetrahydro-3,4-(epiprop[1]en[1]yl[3]ylidene)-10,17-methanobenzo[6,7]thiepino[4,5-c]pyrido[1,2-f][1]oxa[5,6,9]triazacyclotridecine-11,13-dione]	> 50 nM	> 100 nM
CC[C@H]1CCCOc2c(ccc(F)c2F)[C@@H](c2ccccc2)N2CN1C(=O)c1c(O)c(=O)ccn12 (single isomer, unassigned) [Compound 164A, (9*S,18*R)-9-ethyl-3,4-difluoro-12-hydroxy-18-phenyl-6,7,8,9-tetrahydro-18H-10,17-methanobenzo[b]pyrido[1,2-f][1]oxa[5,6,9]triazacyclotridecine-11,13-dione]	> 50 nM	> 100 nM
CC[C@@H]1CCCOc2c(ccc(F)c2F)[C@H](c2ccccc2)N2CN1C(=O)c1c(O)c(=O)ccn12 (single isomer, unassigned) [Compound 164B, (9*R,18*S)-9-ethyl-3,4-difluoro-12-hydroxy-18-phenyl-6,7,8,9-tetrahydro-18H-10,17-methanobenzo[b]pyrido[1,2-f][1]oxa[5,6,9]triazacyclotridecine-11,13-dione]	2.4 nM	> 100 nM
O=C1c2c(O)c(=O)ccn2N2CN1C/C=C\COc1c(ccc(F)c1F)[C@H]2c1ccccc1C(F)F (single isomer, unassigned) [Compound 165A, (18*R,Z)-18-(2-(difluoromethyl)phenyl)-3,4-difluoro-12-hydroxy-6,9-dihydro-18H-10,17-methanobenzo[b]pyrido[1,2-f][1]oxa[5,6,9]triazacyclotridecine-11,13-dione]	7.2 nM	> 100 nM
O=C1c2c(O)c(=O)ccn2N2CN1C/C=C\COc1c(ccc(F)c1F)[C@@H]2c1ccccc1C(F)F (single isomer, unassigned) [Compound 165B, (18*S,*Z)-18-(2-(difluoromethyl)phenyl)-3,4-difluoro-12-hydroxy-6,9-dihydro-18H-10,17-methanobenzo[b]pyrido[1,2-f][1]oxa[5,6,9]triazacyclotridecine-11,13-dione]	> 50 nM	> 100 nM
O=C1c2c(O)c(=O)ccn2N2CN1C1(/C=C/COc3cc(F)c(F)c4c3[C@@H]2c2ncccc2SC4)CCC1 (single isomer, unassigned) [Compound 168A, (21a′*R,*E)-24′,25′-difluoro-16′-hydroxy-6′,21a′-dihydro-10′H-spiro[cyclobutane-1,13′-[7,8](epiprop[1]en[1]yl[3]ylidene)[14,21]methanopyrido[1,2-f]pyrido[2′,3′:6,7]thiepino[4,5-c][1]oxa[5,6,9]triazacyclotridecine]-15′,17′-dione]	> 50 nM	> 100 nM
CC(C)[C@H]1/C=C/COc2cc(F)c(F)c3c2[C@@H](c2ccccc2SC3)N2CN1C(=O)c1c(O)c(=O)ccn12 (single isomer, unassigned) [Compound 169AA, (9*S,17a*S,*E)-24,25-difluoro-12-hydroxy-9-isopropyl-2,6,9,17a-tetrahydro-3,4-(epiprop[1]en[1]yl[3]ylidene)-10,17-methanobenzo[6,7]thiepino[4,5-c]pyrido[1,2-f][1]oxa[5,6,9]triazacyclotridecine-11,13-dione]	48 nM	> 100 nM
CC(C)[C@@H]1/C=C/COc2cc(F)c(F)c3c2[C@@H](c2ccccc2SC3)N2CN1C(=O)c1c(O)c(=O)ccn12 (single isomer, unassigned) [Compound 169AB, (9*R,17a*S,*E)-24,25-difluoro-12-hydroxy-9-isopropyl-2,6,9,17a-tetrahydro-3,4-(epiprop[1]en[1]yl[3]ylidene)-10,17-methanobenzo[6,7]thiepino[4,5-c]pyrido[1,2-f][1]oxa[5,6,9]triazacyclotridecine-11,13-dione]	> 50 nM	> 100 nM
